We go through one compound from patent publication US11786447B2, “Conditioner composition comprising a chelant” (The Procter & Gamble Company, priority 2016, dated 2023).

This test is described as follows: Measurement of copper on hair after shampoo/rinse-off conditioner wash cycles (ICP-OES). As to conditions: picolinic acid in the rinse-off conditioner; after 20 clarifying shampoo/rinse-off conditioner cycles. As to the method:
All testing are performed on colored hair switches (see Method of Measurement of copper on hair below) weighing approximately 4.0 grams and having a length of approximately 6 inches. The hair switches are commercially available from IHIP (International Hair Importers). Three hair switches per shampoo composition are used. An amount of […] of shampoo is spread via a syringe onto separate hair switch. That is, the dosage is 0.10 g of shampoo per g of hair. Each application consists of adding shampoo to the hair, milking for 30 seconds followed by rinsing for 30 seconds. Shampoo is then reapplied (0.1 g/g), milked for 30 seconds and rinsed for 30 seconds. Excess water is squeezed from the hair switches and left to air dry or treated with a rinse-off conditioner and/or a leave-on treatment composition. This protocol is repeated for a number of times/cycles (as indicated in the tables below, which describe the details of hair treatments).
All testing are performed on colored hair switches (see Method of Measurement of copper on hair below) weighing approximately 4.0 grams and having a length of approximately 6 inches. […]
Samples of 100 mg of hair were digested overnight with 2 ml of high purity concentrated nitric acid. […] Copper content of the hair switches was determined by inductively coupled plasma atomic spectroscopy (ICP-OES)). For each leg, 3 different samples were analyzed. […]

With `O=C(O)c1ccccn1` [picolinic acid], the “Removal of copper from hair compared to clarifying shampoo/control rinse-off conditioner” value is given as “effective removal of copper from hair”.
